Test results reported in ChEMBL document CHEMBL1145498, “A systematic interaction map of validated kinase inhibitors with Ser/Thr kinases” (Proc Natl Acad Sci U S A, 2007).

What follows are compounds tested against 5'-AMP-activated protein kinase catalytic subunit alpha-2 (Homo sapiens) (UniProt P54646).

Row | ΔTm [°C] | SMILES
1 | 1 | NC1=NC(=O)/C(=C2\CCNC(=O)c3[nH]c(Br)cc32)N1 [HYMENIALDISINE]
2 | 0.7 | O=C(O)/C=C/c1cc(CO)ccc1CO

Row | SMILES | ΔTm [°C]
3 | O=S(=O)(NCCNC/C=C/c1ccc(Br)cc1)c1cccc2cnccc12 | 0.9

These compounds were tested against Calcium/calmodulin-dependent protein kinase type II subunit alpha (Homo sapiens) (UniProt Q9UQM7).

Row | ΔTm [°C] | SMILES
4 | 0.4 | NC1=NC(=O)/C(=C2\CCNC(=O)c3[nH]c(Br)cc32)N1 [HYMENIALDISINE]
5 | -0.1 | O=C(O)/C=C/c1cc(CO)ccc1CO

Row | SMILES | ΔTm [°C]
6 | O=S(=O)(NCCNC/C=C/c1ccc(Br)cc1)c1cccc2cnccc12 | 0.5

What follows are compounds tested against T1, Calcium/calmodulin-dependent protein kinase type IV (Homo sapiens) (UniProt Q16566).
T1 sequence (whole entry): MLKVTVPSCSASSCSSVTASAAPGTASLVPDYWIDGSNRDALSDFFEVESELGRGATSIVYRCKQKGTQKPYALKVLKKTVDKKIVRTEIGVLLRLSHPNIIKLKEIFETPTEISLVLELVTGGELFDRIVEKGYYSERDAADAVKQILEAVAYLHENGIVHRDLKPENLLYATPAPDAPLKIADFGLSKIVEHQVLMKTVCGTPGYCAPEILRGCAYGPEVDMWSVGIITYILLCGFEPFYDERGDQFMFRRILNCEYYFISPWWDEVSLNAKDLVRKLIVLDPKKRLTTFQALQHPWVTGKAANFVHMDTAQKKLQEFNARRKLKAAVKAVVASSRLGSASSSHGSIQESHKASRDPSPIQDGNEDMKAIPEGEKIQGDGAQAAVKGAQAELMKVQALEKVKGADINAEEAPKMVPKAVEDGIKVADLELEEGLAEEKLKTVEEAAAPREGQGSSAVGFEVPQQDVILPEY

Row | ΔTm [°C] | SMILES
7 | 0.1 | NC1=NC(=O)/C(=C2\CCNC(=O)c3[nH]c(Br)cc32)N1 [HYMENIALDISINE]
8 | 0.5 | O=C(O)/C=C/c1cc(CO)ccc1CO

Row | SMILES | ΔTm [°C]
9 | O=S(=O)(NCCNC/C=C/c1ccc(Br)cc1)c1cccc2cnccc12 | 0.4

These compounds were tested against Calcium/calmodulin-dependent protein kinase kinase 2 (Homo sapiens, UniProt Q96RR4).

Row | ΔTm [°C] | SMILES
10 | 3.4 | NC1=NC(=O)/C(=C2\CCNC(=O)c3[nH]c(Br)cc32)N1 [HYMENIALDISINE]
11 | 0.1 | O=C(O)/C=C/c1cc(CO)ccc1CO

Row | SMILES | ΔTm [°C]
12 | O=S(=O)(NCCNC/C=C/c1ccc(Br)cc1)c1cccc2cnccc12 | -0.1

Each compound was assayed against Serine/threonine-protein kinase Chk2 (Homo sapiens, UniProt O96017).

Row | ΔTm [°C] | SMILES
13 | 8.2 | NC1=NC(=O)/C(=C2\CCNC(=O)c3[nH]c(Br)cc32)N1 [HYMENIALDISINE]
14 | 0.6 | O=C(O)/C=C/c1cc(CO)ccc1CO

Row | SMILES | ΔTm [°C]
15 | O=S(=O)(NCCNC/C=C/c1ccc(Br)cc1)c1cccc2cnccc12 | 2.6

The compounds below were run against Dual specificity protein kinase CLK1 (Homo sapiens) (UniProt P49759).

Row | ΔTm [°C] | SMILES
16 | 9.2 | NC1=NC(=O)/C(=C2\CCNC(=O)c3[nH]c(Br)cc32)N1 [HYMENIALDISINE]
17 | 0.2 | O=C(O)/C=C/c1cc(CO)ccc1CO

Row | SMILES | ΔTm [°C]
18 | O=S(=O)(NCCNC/C=C/c1ccc(Br)cc1)c1cccc2cnccc12 | 1.1

What follows are compounds tested against Casein kinase I isoform gamma-2 (Homo sapiens) (UniProt P78368).
Chain of Casein kinase I isoform gamma-2 (Homo sapiens) (P78368 whole entry, looked up, canonical isoform): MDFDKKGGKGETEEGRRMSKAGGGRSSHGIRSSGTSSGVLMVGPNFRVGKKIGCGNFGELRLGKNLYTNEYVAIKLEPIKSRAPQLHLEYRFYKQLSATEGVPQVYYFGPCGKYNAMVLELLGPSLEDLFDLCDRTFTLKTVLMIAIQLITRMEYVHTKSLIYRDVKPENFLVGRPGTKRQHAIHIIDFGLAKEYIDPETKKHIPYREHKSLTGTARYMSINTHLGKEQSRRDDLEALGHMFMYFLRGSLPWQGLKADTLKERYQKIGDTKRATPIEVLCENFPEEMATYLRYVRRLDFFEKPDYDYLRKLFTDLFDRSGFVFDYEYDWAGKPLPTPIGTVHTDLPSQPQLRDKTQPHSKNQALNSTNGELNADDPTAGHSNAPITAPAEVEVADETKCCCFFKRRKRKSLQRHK

Row | ΔTm [°C] | SMILES
19 | 5.6 | NC1=NC(=O)/C(=C2\CCNC(=O)c3[nH]c(Br)cc32)N1 [HYMENIALDISINE]
20 | 0.4 | O=C(O)/C=C/c1cc(CO)ccc1CO

Row | SMILES | ΔTm [°C]
21 | O=S(=O)(NCCNC/C=C/c1ccc(Br)cc1)c1cccc2cnccc12 | 0.1

Each compound was assayed against Casein kinase I isoform gamma-3 (Homo sapiens) (UniProt Q9Y6M4).
Chain of Casein kinase I isoform gamma-3 (Homo sapiens) (Q9Y6M4 whole entry, looked up, canonical isoform): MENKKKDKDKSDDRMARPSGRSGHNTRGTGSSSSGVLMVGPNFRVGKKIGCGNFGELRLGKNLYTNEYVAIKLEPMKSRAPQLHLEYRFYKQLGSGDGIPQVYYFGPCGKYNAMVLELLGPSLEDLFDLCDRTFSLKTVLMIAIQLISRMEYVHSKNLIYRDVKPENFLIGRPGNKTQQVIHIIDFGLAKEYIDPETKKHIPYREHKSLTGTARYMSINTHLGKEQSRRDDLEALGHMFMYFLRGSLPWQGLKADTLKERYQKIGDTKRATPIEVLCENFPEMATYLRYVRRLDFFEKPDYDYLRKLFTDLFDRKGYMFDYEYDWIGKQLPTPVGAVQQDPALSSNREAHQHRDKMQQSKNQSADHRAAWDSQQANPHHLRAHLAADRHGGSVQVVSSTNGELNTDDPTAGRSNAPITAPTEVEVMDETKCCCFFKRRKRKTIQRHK

Row | ΔTm [°C] | SMILES
22 | 3.5 | NC1=NC(=O)/C(=C2\CCNC(=O)c3[nH]c(Br)cc32)N1 [HYMENIALDISINE]
23 | 0.4 | O=C(O)/C=C/c1cc(CO)ccc1CO

Row | SMILES | ΔTm [°C]
24 | O=S(=O)(NCCNC/C=C/c1ccc(Br)cc1)c1cccc2cnccc12 | 0.1

The compounds below were run against Tyrosine-protein kinase JAK1 (Homo sapiens) (UniProt P23458).
Chain of Tyrosine-protein kinase JAK1 (Homo sapiens) (P23458 whole entry): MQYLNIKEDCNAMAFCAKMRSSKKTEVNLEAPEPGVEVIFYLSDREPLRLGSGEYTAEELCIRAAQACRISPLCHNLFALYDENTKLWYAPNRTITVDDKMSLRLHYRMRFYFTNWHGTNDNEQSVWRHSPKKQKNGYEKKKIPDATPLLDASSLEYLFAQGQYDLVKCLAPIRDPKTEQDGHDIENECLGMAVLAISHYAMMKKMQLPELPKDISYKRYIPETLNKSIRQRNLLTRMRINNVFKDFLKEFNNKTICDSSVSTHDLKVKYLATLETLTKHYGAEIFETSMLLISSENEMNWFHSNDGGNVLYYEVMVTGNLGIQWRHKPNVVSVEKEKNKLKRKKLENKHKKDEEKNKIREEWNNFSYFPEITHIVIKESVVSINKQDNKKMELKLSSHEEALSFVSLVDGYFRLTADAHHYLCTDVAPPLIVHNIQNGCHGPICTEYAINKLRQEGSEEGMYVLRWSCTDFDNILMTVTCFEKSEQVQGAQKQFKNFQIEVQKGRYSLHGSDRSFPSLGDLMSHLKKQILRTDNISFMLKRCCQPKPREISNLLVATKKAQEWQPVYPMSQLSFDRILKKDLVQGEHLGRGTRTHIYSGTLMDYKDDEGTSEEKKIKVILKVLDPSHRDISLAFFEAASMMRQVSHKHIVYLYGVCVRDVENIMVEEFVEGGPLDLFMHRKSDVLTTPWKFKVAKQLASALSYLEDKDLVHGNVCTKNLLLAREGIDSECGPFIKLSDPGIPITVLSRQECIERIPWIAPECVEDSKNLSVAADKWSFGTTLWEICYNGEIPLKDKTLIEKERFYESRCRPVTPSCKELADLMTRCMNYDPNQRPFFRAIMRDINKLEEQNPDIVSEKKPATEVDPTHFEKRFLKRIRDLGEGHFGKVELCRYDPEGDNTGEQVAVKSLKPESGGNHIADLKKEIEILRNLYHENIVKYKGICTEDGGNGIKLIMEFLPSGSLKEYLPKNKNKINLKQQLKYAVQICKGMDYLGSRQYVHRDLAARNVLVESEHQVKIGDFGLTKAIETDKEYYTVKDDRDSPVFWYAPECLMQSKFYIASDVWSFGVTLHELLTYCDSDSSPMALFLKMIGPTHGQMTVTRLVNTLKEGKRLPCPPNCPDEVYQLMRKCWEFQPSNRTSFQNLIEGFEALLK

Row | ΔTm [°C] | SMILES
25 | 0.2 | NC1=NC(=O)/C(=C2\CCNC(=O)c3[nH]c(Br)cc32)N1 [HYMENIALDISINE]
26 | 0.8 | O=C(O)/C=C/c1cc(CO)ccc1CO

Row | SMILES | ΔTm [°C]
27 | O=S(=O)(NCCNC/C=C/c1ccc(Br)cc1)c1cccc2cnccc12 | -0.3

Each compound was assayed against T2, Dual specificity mitogen-activated protein kinase kinase 6 (Homo sapiens) (UniProt P52564).
T2 sequence (whole entry): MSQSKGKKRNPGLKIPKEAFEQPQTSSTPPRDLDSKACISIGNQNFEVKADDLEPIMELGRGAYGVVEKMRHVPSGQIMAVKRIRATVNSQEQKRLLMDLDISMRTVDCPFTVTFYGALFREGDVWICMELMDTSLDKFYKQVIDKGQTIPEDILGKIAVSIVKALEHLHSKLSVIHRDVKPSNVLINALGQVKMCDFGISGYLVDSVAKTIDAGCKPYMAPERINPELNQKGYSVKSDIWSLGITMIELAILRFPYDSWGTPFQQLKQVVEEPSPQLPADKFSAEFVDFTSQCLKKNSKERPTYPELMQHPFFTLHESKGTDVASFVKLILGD

Row | ΔTm [°C] | SMILES
28 | 0.6 | NC1=NC(=O)/C(=C2\CCNC(=O)c3[nH]c(Br)cc32)N1 [HYMENIALDISINE]
29 | -0.2 | O=C(O)/C=C/c1cc(CO)ccc1CO

Row | SMILES | ΔTm [°C]
30 | O=S(=O)(NCCNC/C=C/c1ccc(Br)cc1)c1cccc2cnccc12 | 0

What follows are compounds tested against Mitogen-activated protein kinase 3 (Homo sapiens, UniProt P27361).

Row | ΔTm [°C] | SMILES
31 | 0.9 | NC1=NC(=O)/C(=C2\CCNC(=O)c3[nH]c(Br)cc32)N1 [HYMENIALDISINE]
32 | 0.2 | O=C(O)/C=C/c1cc(CO)ccc1CO

Row | SMILES | ΔTm [°C]
33 | O=S(=O)(NCCNC/C=C/c1ccc(Br)cc1)c1cccc2cnccc12 | -0.3

The compounds below were run against Serine/threonine-protein kinase Nek6 (Homo sapiens) (UniProt Q9HC98).
Chain of Serine/threonine-protein kinase Nek6 (Homo sapiens) (Q9HC98 whole entry): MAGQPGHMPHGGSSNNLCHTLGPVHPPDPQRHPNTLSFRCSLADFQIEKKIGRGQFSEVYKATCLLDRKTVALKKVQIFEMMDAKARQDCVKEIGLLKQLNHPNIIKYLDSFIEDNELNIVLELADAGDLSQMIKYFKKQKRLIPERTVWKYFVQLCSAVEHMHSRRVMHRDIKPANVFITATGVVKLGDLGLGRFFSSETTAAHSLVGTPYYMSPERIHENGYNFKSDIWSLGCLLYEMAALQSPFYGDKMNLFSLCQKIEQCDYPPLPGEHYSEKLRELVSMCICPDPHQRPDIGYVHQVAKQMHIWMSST

Row | ΔTm [°C] | SMILES
34 | 0 | NC1=NC(=O)/C(=C2\CCNC(=O)c3[nH]c(Br)cc32)N1 [HYMENIALDISINE]
35 | -0.2 | O=C(O)/C=C/c1cc(CO)ccc1CO

Row | SMILES | ΔTm [°C]
36 | O=S(=O)(NCCNC/C=C/c1ccc(Br)cc1)c1cccc2cnccc12 | -0.1

The compounds below were run against T3, 3-phosphoinositide-dependent protein kinase 1 (Homo sapiens) (UniProt O15530).
T3 sequence (whole entry): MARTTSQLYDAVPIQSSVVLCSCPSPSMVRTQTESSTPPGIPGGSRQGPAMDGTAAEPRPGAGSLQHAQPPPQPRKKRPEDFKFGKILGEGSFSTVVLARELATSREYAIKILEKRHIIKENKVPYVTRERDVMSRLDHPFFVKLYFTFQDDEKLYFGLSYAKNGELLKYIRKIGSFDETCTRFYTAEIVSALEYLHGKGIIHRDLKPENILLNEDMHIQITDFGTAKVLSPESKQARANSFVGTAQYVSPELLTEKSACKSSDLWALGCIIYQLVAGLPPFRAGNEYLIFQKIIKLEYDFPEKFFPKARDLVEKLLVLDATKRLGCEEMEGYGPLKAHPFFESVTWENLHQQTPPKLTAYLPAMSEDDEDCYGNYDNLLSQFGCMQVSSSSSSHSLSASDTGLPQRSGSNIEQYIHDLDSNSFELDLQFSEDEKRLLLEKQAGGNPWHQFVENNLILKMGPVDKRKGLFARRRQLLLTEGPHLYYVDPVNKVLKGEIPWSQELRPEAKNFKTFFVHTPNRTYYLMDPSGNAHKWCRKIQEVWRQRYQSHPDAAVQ

Row | ΔTm [°C] | SMILES
37 | -0.2 | NC1=NC(=O)/C(=C2\CCNC(=O)c3[nH]c(Br)cc32)N1 [HYMENIALDISINE]
38 | 0 | O=C(O)/C=C/c1cc(CO)ccc1CO

Row | SMILES | ΔTm [°C]
39 | O=S(=O)(NCCNC/C=C/c1ccc(Br)cc1)c1cccc2cnccc12 | -0.7

These compounds were tested against cAMP-dependent protein kinase catalytic subunit alpha (Homo sapiens) (UniProt P17612).

Row | ΔTm [°C] | SMILES
40 | 0.8 | NC1=NC(=O)/C(=C2\CCNC(=O)c3[nH]c(Br)cc32)N1 [HYMENIALDISINE]
41 | 0.4 | O=C(O)/C=C/c1cc(CO)ccc1CO

Row | SMILES | ΔTm [°C]
42 | O=S(=O)(NCCNC/C=C/c1ccc(Br)cc1)c1cccc2cnccc12 | 6.9

The compounds below were run against Serine/threonine-protein kinase RIO2 (Homo sapiens) (UniProt Q9BVS4).

Row | ΔTm [°C] | SMILES
43 | 0.2 | NC1=NC(=O)/C(=C2\CCNC(=O)c3[nH]c(Br)cc32)N1 [HYMENIALDISINE]
44 | 0.4 | O=C(O)/C=C/c1cc(CO)ccc1CO

Row | SMILES | ΔTm [°C]
45 | O=S(=O)(NCCNC/C=C/c1ccc(Br)cc1)c1cccc2cnccc12 | 0

Each compound was assayed against Ribosomal protein S6 kinase alpha-3 (Homo sapiens) (UniProt P51812).

Row | ΔTm [°C] | SMILES
46 | 4.2 | NC1=NC(=O)/C(=C2\CCNC(=O)c3[nH]c(Br)cc32)N1 [HYMENIALDISINE]
47 | 0.3 | O=C(O)/C=C/c1cc(CO)ccc1CO

Row | SMILES | ΔTm [°C]
48 | O=S(=O)(NCCNC/C=C/c1ccc(Br)cc1)c1cccc2cnccc12 | 2.2

What follows are compounds tested against STE20-like serine/threonine-protein kinase (Homo sapiens) (UniProt Q9H2G2).
Chain of STE20-like serine/threonine-protein kinase (Homo sapiens) (Q9H2G2 whole entry, looked up): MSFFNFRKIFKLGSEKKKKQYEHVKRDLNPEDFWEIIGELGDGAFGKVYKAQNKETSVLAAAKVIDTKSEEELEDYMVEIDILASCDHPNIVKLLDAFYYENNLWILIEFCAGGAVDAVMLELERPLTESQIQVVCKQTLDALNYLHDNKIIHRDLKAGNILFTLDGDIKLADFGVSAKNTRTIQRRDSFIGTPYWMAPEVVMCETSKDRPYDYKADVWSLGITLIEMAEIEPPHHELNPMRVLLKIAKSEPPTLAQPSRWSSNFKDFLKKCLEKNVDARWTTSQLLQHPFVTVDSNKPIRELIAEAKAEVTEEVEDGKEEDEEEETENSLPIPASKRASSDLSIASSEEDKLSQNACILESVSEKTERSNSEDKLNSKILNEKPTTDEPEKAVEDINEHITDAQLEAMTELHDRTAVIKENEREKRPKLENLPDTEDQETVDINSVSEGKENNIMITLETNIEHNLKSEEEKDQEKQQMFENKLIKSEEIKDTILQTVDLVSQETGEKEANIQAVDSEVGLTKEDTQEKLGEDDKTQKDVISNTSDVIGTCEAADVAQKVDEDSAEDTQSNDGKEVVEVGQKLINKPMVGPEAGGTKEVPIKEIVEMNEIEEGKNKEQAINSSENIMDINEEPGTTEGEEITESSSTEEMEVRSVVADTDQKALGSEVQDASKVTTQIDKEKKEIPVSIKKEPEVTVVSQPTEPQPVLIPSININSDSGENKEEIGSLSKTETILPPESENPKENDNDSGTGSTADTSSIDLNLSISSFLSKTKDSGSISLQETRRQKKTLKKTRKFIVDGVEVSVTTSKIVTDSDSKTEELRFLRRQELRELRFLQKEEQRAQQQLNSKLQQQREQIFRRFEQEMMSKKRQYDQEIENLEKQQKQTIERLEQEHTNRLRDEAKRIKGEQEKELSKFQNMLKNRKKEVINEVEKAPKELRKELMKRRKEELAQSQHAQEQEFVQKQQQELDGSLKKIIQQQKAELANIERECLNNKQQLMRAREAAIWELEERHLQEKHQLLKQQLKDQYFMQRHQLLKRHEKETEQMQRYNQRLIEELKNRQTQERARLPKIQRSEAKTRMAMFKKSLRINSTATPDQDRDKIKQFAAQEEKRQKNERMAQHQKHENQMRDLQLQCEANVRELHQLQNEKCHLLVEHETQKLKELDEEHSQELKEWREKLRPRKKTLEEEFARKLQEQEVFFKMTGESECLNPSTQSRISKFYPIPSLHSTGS

Row | ΔTm [°C] | SMILES
49 | 2.1 | NC1=NC(=O)/C(=C2\CCNC(=O)c3[nH]c(Br)cc32)N1 [HYMENIALDISINE]
50 | 0 | O=C(O)/C=C/c1cc(CO)ccc1CO

Row | SMILES | ΔTm [°C]
51 | O=S(=O)(NCCNC/C=C/c1ccc(Br)cc1)c1cccc2cnccc12 | 1.6

Each compound was assayed against TRAF2 and NCK-interacting protein kinase (Homo sapiens) (UniProt Q9UKE5).
Chain of TRAF2 and NCK-interacting protein kinase (Homo sapiens) (Q9UKE5 whole entry, looked up): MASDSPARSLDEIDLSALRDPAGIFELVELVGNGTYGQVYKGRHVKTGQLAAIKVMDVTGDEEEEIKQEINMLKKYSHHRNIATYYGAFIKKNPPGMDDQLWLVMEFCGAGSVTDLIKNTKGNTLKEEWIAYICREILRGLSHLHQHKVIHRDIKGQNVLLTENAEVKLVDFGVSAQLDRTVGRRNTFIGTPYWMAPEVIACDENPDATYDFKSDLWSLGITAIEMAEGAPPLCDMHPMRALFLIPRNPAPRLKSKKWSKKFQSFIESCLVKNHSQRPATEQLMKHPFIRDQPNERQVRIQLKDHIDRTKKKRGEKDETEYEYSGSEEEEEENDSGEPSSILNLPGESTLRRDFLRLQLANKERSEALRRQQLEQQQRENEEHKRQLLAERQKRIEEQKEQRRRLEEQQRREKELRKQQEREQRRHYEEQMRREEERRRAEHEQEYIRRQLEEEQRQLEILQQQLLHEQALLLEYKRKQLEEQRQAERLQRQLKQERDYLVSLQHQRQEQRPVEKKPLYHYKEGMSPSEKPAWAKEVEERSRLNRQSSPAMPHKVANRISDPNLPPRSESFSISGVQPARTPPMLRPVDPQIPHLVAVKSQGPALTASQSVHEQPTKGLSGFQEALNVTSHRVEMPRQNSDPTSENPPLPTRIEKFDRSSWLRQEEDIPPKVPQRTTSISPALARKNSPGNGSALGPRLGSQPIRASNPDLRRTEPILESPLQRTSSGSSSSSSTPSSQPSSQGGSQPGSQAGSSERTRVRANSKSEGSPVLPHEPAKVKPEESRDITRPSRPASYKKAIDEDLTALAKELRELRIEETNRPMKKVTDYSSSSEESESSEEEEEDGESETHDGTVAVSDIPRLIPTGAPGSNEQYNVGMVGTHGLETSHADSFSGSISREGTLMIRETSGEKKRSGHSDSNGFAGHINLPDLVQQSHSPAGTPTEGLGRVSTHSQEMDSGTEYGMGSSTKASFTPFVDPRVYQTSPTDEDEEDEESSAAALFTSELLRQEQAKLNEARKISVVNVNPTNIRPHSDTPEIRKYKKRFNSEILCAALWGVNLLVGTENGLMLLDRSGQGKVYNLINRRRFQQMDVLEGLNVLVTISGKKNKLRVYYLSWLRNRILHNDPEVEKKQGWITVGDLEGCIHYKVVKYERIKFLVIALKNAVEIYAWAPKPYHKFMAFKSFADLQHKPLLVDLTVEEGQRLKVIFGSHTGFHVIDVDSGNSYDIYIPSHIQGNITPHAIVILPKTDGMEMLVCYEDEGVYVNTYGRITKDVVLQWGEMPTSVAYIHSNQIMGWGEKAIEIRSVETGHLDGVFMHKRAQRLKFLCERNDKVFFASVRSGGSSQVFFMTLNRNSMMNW

Row | ΔTm [°C] | SMILES
52 | 4.7 | NC1=NC(=O)/C(=C2\CCNC(=O)c3[nH]c(Br)cc32)N1 [HYMENIALDISINE]
53 | 0.8 | O=C(O)/C=C/c1cc(CO)ccc1CO

Row | SMILES | ΔTm [°C]
54 | O=S(=O)(NCCNC/C=C/c1ccc(Br)cc1)c1cccc2cnccc12 | 0

The compounds below were run against T4, Serine/threonine-protein kinase VRK3 (Homo sapiens) (UniProt Q8IV63).
T4 sequence (whole entry): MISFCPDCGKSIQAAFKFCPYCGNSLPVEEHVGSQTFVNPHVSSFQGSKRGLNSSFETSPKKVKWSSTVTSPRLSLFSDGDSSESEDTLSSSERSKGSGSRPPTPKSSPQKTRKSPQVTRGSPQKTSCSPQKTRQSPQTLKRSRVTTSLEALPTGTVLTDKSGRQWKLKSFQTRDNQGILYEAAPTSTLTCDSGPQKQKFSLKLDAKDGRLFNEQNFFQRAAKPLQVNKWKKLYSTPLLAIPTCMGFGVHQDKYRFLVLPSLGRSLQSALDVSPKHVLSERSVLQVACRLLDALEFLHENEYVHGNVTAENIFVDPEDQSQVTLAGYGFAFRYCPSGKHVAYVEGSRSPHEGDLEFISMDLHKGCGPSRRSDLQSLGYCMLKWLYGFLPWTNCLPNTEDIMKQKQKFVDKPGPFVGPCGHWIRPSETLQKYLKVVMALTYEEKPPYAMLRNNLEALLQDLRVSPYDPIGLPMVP

Row | ΔTm [°C] | SMILES
55 | 0.3 | NC1=NC(=O)/C(=C2\CCNC(=O)c3[nH]c(Br)cc32)N1 [HYMENIALDISINE]
56 | 0.2 | O=C(O)/C=C/c1cc(CO)ccc1CO

Row | SMILES | ΔTm [°C]
57 | O=S(=O)(NCCNC/C=C/c1ccc(Br)cc1)c1cccc2cnccc12 | 0.2
